Legend:
[1] = tested on: advanced pancreatic cancer; details: historical controls; cited from earlier work
IBS patients = experiment: Open-label study of PTI-901 in 42 IBS patients; format: in vivo, human
Protocol: Forty-two IBS patients participated in an open-label study. Participants received 0.5 mg PTI-901/day for 4 weeks and were evaluated during baseline, during treatment, and at 4-week follow-up. Patients recorded degree of abdominal pain, stool urgency, consistency, and frequency. Primary outcomes were number of pain-free days and overall symptom relief, evaluated by a global assessment score. Data were analyzed per protocol. Global assessment improved in 76% of 42 patients. During treatment, the mean weekly number of pain-free days increased from 0.5+/−1 to 1.25+/−2.14 (P=0.011).

Row | Structure (SMILES) | Clinical benefit response [1] [%] | Global assessment improved (IBS patients; 0.5 mg/day for 4 weeks, of 42 patients) [%] | mean weekly number of pain-free days (IBS patients; during treatment, from 0.5+/−1, P=0.011) | adverse reactions (IBS patients; human, in vivo)
1 | O=c1[nH]cc(F)c(=O)[nH]1 [5-fluorouracil (5-FU), 5-fluorouracil] | 4.8 |  |  | 
2 | Cl.O=C1CC[C@@]2(O)[C@H]3Cc4ccc(O)c5c4[C@@]2(CCN3CC2CC2)[C@H]1O5 [PTI-901] |  | 76 | 1.25+/−2.14 | no significant adverse reactions
3 | Nc1ccn([C@@H]2O[C@H](CO)[C@@H](O)C2(F)F)c(=O)n1 [gemcitabine] | 23.8 |  |  | 

Reference: patent US20170239239A1, “Method for Inducing a Sustained Immune Response” (Immune Therapeutics Inc., priority 2016, published 2017)
